Patent US6949533B2, “6,7-Oxygenated steroids and uses related thereto” (Inflazyme Pharmaceuticals Ltd., priority 1996, dated 2005)
Like-named read-outs stand apart in the source and are kept apart here.

What was measured:
rabbit platelets = assay: PAF-induced aggregation of rabbit platelets; assay type: cell-based; details: Oryctolagus cuniculus, Platelet, read-out: % Inhibition at 80 μM
Excerpt: Within the present invention, it was discovered that the polyhydroxylated steroids as well as intermediates described in previous sections inhibited the aggregation of platelets caused by platelet activating factor (PAF). PAF is a local mediator of thrombosis and prevention of the formation of blood clots has direct implication in the treatment of thrombosis and associated cardiovascular diseases. The assay system used to evaluate the ability of compounds to inhibit the aggregation of platelets in response to exogenous stimuli is indicative of anti-thrombotic or thrombolytic activity.
Platelets were isolated from rabbit blood and prepared at a density of 2.4×10^8 cells/ml in Tyrodes buffer (pH 7.2) containing Ca^2+. Platelets were incubated with each compound for 5 min at 37° C. prior to stimulation. Platelets were stimulated with 1 nM platelet activating factor (PAF; EC75) in the presence of each of the compounds and aggregation was monitored for 5 min. Compounds were solubilized in dimethylsulfoxide (DMSO) and aggregation was measured as a percentage of the response to 1 nM PAF obtained in the presence of the appropriate concentration of DMSO. The degree of inhibition caused by each sample was calculated using the control response in the presence of DMSO equal to 100%.

[1] = test system: passively sensitized rat mast cells (RBL-2H3); assay: antigen-induced release of hexosaminidase from RBL-2H3 cells; assay type: cell-based; details: Rattus norvegicus
Method: (§1) The anti-allergic effects of various polyhydroxylated steroids of the present invention were evaluated by measuring their effect on antigen-induced secretion of hexosaminidase from a passively sensitized rat mast cell line (RBL-2H3) and a murine mast cell line (MC/9). The ability of agents to inhibit the release of mast cell granule contents, e.g., histamine and hexosaminidase, is indicative of anti-allergy and/or anti-asthma activity.
(§2) Hexosaminidase is released from the mast cell granule along with histamine and other mediators during antigen challenge. RBL-2H3 and MC/9 cells were grown in culture and passively sensitized to dinitrophenol (DNP) using anti-human-DNP (IgE). Cells were incubated with each compound (25 μM) for 1 hour at 37° C. and then stimulated with 0.1 mg/ml DNP-HSA (antigen) for 15 min. Aliquots of the supernatant were removed and used to measure the amount of hexosaminidase released during challenge with the antigen. The amount of hexosaminidase present in the supernatant was determined calorimetrically by monitoring the enzymatic metabolism of p-nitrophenyl-N-acetyl-β-D-glucosaminide (p-NAG) over a period of 1 hour at 410 nm. The effect of each compound was determined as a percentage of the antigen-induced response (minus background release) obtained in the presence of DMSO alone, as set forth in Tables 2 and 3. These values were used to determine the degrees of inhibition of antigen-induced hexosaminidase release from the cells.

guinea pig ileum = assay: antigen-induced contraction of ileum from sensitized guinea pigs; details: Cavia porcellus, read-out: Percentage Inhibition, 30 μM compound, n = 3-4
Method: The ability of compounds to inhibit allergen-induced contraction of ileum from sensitized animals is indicative of antiallergic activity. Sensitized guinea pig ileum is particularly useful in measuring the immediate allergic response.
The guinea pig ileum has been used to evaluate the ability of compounds to inhibit allergan-induced histamine and mediator release causing smooth muscle contraction. Guinea pigs were sensitized by an intraperitoneal injection of 100 mg ovalbumin and an intramuscular injection of 50 mg ovalbumin on day 0, followed by a second intramuscular injection of 50 mg ovalbumin on day 1. […] Segments of ileum were prepared and suspended, with muscle contractions being measured in the longitudinal plane, in Tyrode's buffer at 37° C. and aerated with 5% CO2 in O2. Tissues were suspended under a resting tension of 2 grams and isometric contractions were measured using force-displacement transducers coupled to a polygraph. Tissues were stimulated with 3 μM histamine 3 times to ensure reproducible contractions were obtained. Tissues were then incubated with each compound (30 μM) or 0.15% dimethylsulphoxide (DMSO) as a control, for 20 min, after which time the tissues were challenged with 100 μg/ml ovalbumin. The magnitude of the contraction induced by OA in the presence of each compound was expressed as a percentage of the contraction obtained to 3 μM histamine. The protective effects of the various compounds on OA-induced contraction of guinea pig ileum from sensitized animals are summarized in Table 4.

mouse mast cells (MC/9) = assay: antigen-induced release of hexosaminidase from MC/9 cells; assay type: cell-based; details: Mus musculus, MC9, 25 μM compound, read-out: Percentage Inhibition (mean) MC/9 cells
Method: as §1, §2

NF-κB = NF-κB gel shift binding assay in TPA-stimulated RBL-2H3 cells; assay type: cell-based; details: Rattus norvegicus, compound 1 μM, 2 hours preincubation, read-out: Percent Inhibition of Response to TPA (0.1 μM)
isolated trachea = test system: isolated trachea; design: species or system guinea pig; details: compound 20 μM, study 1
Method: The effects of a number of the compounds described herein on allergen-induced bronchoconstriction were evaluated for anti-asthma activity. The ability of a compound to inhibit allergen-induced decreases in lung function in sensitized guinea pigs in response to antigen-challenge is indicative of anti-asthma activity. In particular, the model system is useful in the evaluation of the potential effects of a compound in the treatment of the early asthmatic reaction (EAR) when severe bronchoconstriction occurs.
Guinea pigs were exposed to a nebulized solution of 1% ovalbumin (OA) in saline for 15 min. […] Tracheal rings were prepared and bathed in Krebs-Henseleit solution at 37° C. and aerated with 5% CO2 in […]. Tissues were suspended under a resting tension of 2 g and isometric contractions were measured using force-displacement transducers coupled to a polygraph. Tissues were incubated with each compound or 0.1% dimethylsulfoxide (as a control) for 20 min, after which increasing concentrations of OA (0.001-100 μg/ml) were added to the tissue. After the final concentration of OA was added and the response was recorded, the tissues were stimulated with 100 μM methacholine which caused maximum contraction of the trachea. The magnitude of the contraction induced by OA in the presence of each compound was expressed as a percentage of the maximum contraction obtained using methacholine (100 μM).

[2] = RBL-2H3, read-out: Percentage Inhibition (mean) RBL-2H3 Cells

For `C[C@]12CCC(=O)C=C1[C@@H](O)[C@H](O)C1C2CC[C@]2(C)C(=O)CCC12` (stereo partly shown) [Compound 7], the inhibition at 80 µM (rabbit platelets) was 12.3%, the inhibition at 25 µM [1, 2] was 21.7% and the inhibition at 30 µM (guinea pig ileum) was 54%.
For `C/C=C1/CCC2C3C(CC[C@]12C)[C@@]1(C)CC[C@H](O)CC1[C@@H](O)[C@@H]3O` (stereo partly shown) [Compound 333], the inhibition at 25 µM ([1]; RBL-2H3, 25 μM compound, antigen-induced hexosaminidase release, read-out: Percentage Inhibition (mean) RBL-2H3 Cells) was 69%, the inhibition at 25 µM (mouse mast cells (MC/9)) was 71% and the inhibition at 30 µM (guinea pig ileum) was 63%. The inhibition at 1 µM (NF-κB) was 34%.
`CC1(C)O[C@@H]2C3=CC(=O)CC[C@]3(C)C3CC[C@]4(C)C(=O)CCC4C3[C@H]2O1` (stereo partly shown) [Compound 8] gave an inhibition at 80 µM (rabbit platelets; 80 μM compound, 5 min preincubation, PAF-stimulated rabbit platelets (title: 0.1 nM PAF)) of 11.6%.
`CC1(C)O[C@@H]2C3C(CC[C@@]4(C)C3CC[C@@H]4O[Si](C)(C)C(C)(C)C)[C@@]3(C)CC[C@H](O)[C@@H](O)C3[C@H]2O1` (stereo partly shown) [Compound 236] was tested, and the inhibition at 80 µM (rabbit platelets) was 100%, the inhibition at 25 µM [1, 2] was 31% and the “percentage contraction compared to 100 μM methacholine” value (from here on “percentage contraction”) (isolated trachea; OA 0.01 μg/ml) was 5.6%. The “percentage contraction” value (isolated trachea; OA 0.03 μg/ml) was 5.6% and the “percentage contraction” value (isolated trachea; OA 10.0 μg/ml) was 39%.
